Measured values reported in PMC6934184, “Selective DNA-PKcs inhibition extends the therapeutic index of localized radiotherapy and chemotherapy” (The Journal of Clinical Investigation, 2019).

Molecular target: T1, CAMK4 (CaMKIV) (Homo sapiens, UniProt Q16566)
T1 construct: purchased Thermo Fisher Scientific (Life Technologies) SelectScreen
Test: SelectScreen Z'LYTE
Format: biochemical
Procedure, shortened: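 Percent values come from Thermo SelectScreen profiling of NU5455, combining activity and binding assays. CSF1R was run in Z'LYTE format at Km app ATP, and CAMK1 in Adapta format with ATP listed at 10.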

T1 sequence (Q16566 whole entry): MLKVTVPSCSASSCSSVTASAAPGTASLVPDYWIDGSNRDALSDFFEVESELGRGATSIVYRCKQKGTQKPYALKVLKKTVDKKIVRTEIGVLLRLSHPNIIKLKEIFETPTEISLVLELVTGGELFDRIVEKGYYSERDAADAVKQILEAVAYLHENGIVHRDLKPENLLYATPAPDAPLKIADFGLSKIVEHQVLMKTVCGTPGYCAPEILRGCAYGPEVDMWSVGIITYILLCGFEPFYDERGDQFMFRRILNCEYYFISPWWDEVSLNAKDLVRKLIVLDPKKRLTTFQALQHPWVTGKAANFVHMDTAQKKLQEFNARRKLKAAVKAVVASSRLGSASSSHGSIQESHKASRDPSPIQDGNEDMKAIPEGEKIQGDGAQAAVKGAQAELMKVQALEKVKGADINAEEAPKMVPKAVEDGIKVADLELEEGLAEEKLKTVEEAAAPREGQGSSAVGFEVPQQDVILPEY

## CN(C(=O)CN1CCOCC1)c1ccc2sc3c(-c4cccc5c(=O)cc(N6CC7CCC(C6)O7)oc45)cccc3c2c1 [NU5455]
  inhibition at 1 µM: -10.4%
